“And” between values parts separate entries of the source, which are not always exact repeats. Equal entries are not always repeated. “Also recorded” adds a separate entry of the source.
What was measured:
[1] = tested on: KSHV, MHV 68; conditions: FIG. 4 comparison; cited from earlier work
[2] = cited from earlier work
[3] = tested on: NIH3T12 cells; assay: Cell division inhibition (cell counts) in NIH3T12 cells; assay type: cell-based, Murine; conditions: Mus musculus, 48 h, NIH3T12, two days, read-out: 50% cell division inhibitory concentration
Method: (§1) The effect of higher THC concentrations on cell division was also determined. Exponentially growing BCBL-1 or NIH12 cells were cultured for two days in the presence of various concentrations of THC or DMSO and cell counts were determined. The 50% cell division inhibitory concentration of THC for BCBL-1 cells was around 33 μM. NIH3T12 cells were less sensitive and the 50% inhibitory concentration was around 99 μM (not shown).

[4] = tested on: HSV-1; assay: HSV-1 replication in OMK cells; assay type: cell-based
Method: Control cultures were treated with […]. IC50 was determined by measuring virus titers in THC treated and control samples after one cycle of freeze-thawing of the cultures. Additional controls were uninfected cells grown in the presence of THC or DMSO. THC or DMSO were present throughout the experiment.
The inventors next examined whether or not the THC inhibitory effect can be observed against other herpesviruses and tested whether drug treatment suppresses the replication of the alpha herpesvirus, HSV-1. […] . […] HSV-1 replication in OMK was also unaffected by THC in an analogous experiment (not shown).

[5] = tested on: CMV immediate early promoter; assay: Dual luciferase promoter assay, control CMV promoter in NIH3T12 cells; assay type: cell-based; conditions: 5 μg/ml, 48 hours
From the text: (§2) FIG. 3 is a table showing the relative luciferase activity of extracts from control and THC treated cells. […] cells co-transfected with MHV 68 ORF 50 plus CMV control (top rows). BCBL-1 cells were co-transfected with the KSHV ORF 50 plus CMV control (bottom rows). Data represents averages from three independent co-transfection experiments.
(§3) A DNA fragment corresponding to the promoter region upstream of the mapped mRNAs was cloned into the basic firefly luciferase vector (Promega, Inc, Madison Wis.) to evaluate the effect of THC on the KSHV ORF 50 promoter. To assay the effect of THC on the MHV 68 ORF 50 gene, a DNA fragment containing the 0.4 kb full length ORF 50 promoter (nucleotides 66242-66652) cloned upstream of the firefly luciferase was utilized. About 5 μg KSHV ORF 50 firefly plasmid DNA was transfected into BCBL-1 cells. About 5 μg MHV 68 ORF 50 firefly plasmid DNA was transfected Into NIH312 cells. Control renilla luciferase expression vector (under the control of the CMV immediate early promoter) was included and co-transfected along with the ORF 50 reporter constructs. […] Luciferase activities were determined using a dual luminometer.
(§4) To evaluate the effect of THC on the MHV 68 and KSHV ORF 50 promoters, luciferase reporter assays were performed. […] Luciferase activities were determined using a dual luminometer. […]

[6] = tested on: EBV; assay: Gardella gel antiviral assay, TPA-induced EBV replication in P3HR1 cells; assay type: cell-based, Epstein-Barr virus (EBV); conditions: P3HR1 cells with TPA
[7] = tested on: NIH3T12 cells; assay: Cytotoxicity (monolayer growth and morphology) in NIH3T12 cells; assay type: cell-based, Murine; conditions: 0.6-10 μg/ml, 2 days
From the text: (§5) Because the observed effects might be due to a non-specific toxic effect of THC, the inventors tested whether THC alters cell division or morphology in NIH3T12 and owl monkey kidney (OMK) cells. […].

[8] = tested on: HSV-1; assay: HSV-1 plaque formation and virus yield in NIH3T12 cells; assay type: cell-based
[9] = tested on: Owl monkey kidney (OMK) cells; assay: Cytotoxicity in owl monkey kidney (OMK) cells; assay type: cell-based; conditions: analogous experiment
From the text: as §5

[10] = tested on: MHV 68; assay: Cytopathic effect and virus yield reduction, MHV 68 in NIH3T12 cells; assay type: cell-based, murine gamma herpesvirus 68 (MHV-68)
[11] = tested on: KSHV ORF 50 promoter; assay: Dual luciferase promoter assay, KSHV ORF 50 promoter in BCBL-1 cells; assay type: cell-based; conditions: 5 μg/ml, 48 hours
From the text: as §2, §3, §4

[12] = tested on: KSHV; assay: Gardella gel antiviral assay, KSHV DNA replication in BCBL-1 cells
[13] = tested on: BCBL-1 cells; assay: Cell division inhibition (cell counts) in BCBL-1 cells; assay type: cell-based; conditions: BCBL1, 48 h, BCBL-1, two days, read-out: 50% cell division inhibitory concentration
Method: as §1

[14] = tested on: HVS; assay: Cytopathic effect and virus yield reduction, HVS in owl monkey kidney cells; assay type: cell-based, herpesvirus saimiri (HVS)
[15] = tested on: CMV immediate early promoter; assay: Dual luciferase promoter assay, control CMV promoter in BCBL-1 cells; assay type: cell-based; conditions: 5 μg/ml
From the text: as §2, §3, §4

[16] = tested on: KSHV
Method: BCBL-1 cells were incubated with or without THC and in the presence of these compounds.

Question: What does the source list for `Nc1ccn(C[C@@H](CO)OCP(=O)(O)O)c(=O)n1` [Cidofovir]?
Answer: Relative potency in in vitro antiviral experiments [1]: most potent; Side effects in humans [2]: toxic to the kidney

Question: For `CCCCCc1cc(O)c2c(c1)OC(C)(C)[C@@H]1CCC(C)=C[C@@H]21` [THC, Δ-9 Tetrahydrocannabinol], which IC50 [3] is on record?
Answer: ~99 µM

Question: What about the HSV-1 replication [4] of the same molecule?
Answer: unaffected

Question: What about the “Reduction of control CMV promoter activity” value [5] of the same molecule?
Answer: 35%

Question: And the “Effect on EBV linear DNA synthesis” value ([6]; autoradiogram)?
Answer: inhibited EBV linear DNA synthesis

Question: What about the IC50 ([6]; human gammaherpesvirus 4, P3HR-1, read-out: 50% inhibitory concentration (IC50), EBV linear DNA synthesis) of the same molecule?
Answer: ~0.9 µg/mL and ~3.1 µM

Question: And the “Cell growth and morphology” value [7]?
Answer: no altered morphology

Question: What about the HSV-1 plaque development ([8]; 0.6-10 μg/ml, 3 days, NIH3T12) of the same molecule?
Answer: indistinguishable from those in control cultures

Question: And the “Effect on HSV-1 virus yield” value ([8]; NIH3T12, multiplicity of 2, 24 hours)?
Answer: no significant inhibitory effect

Question: And the Toxicity [9]?
Answer: no toxicity

Question: And the “Cytopathic effect of MHV 68, appearance of infected cells” value ([10]; 0.6 μg/ml, 48 hours, NIH3T12)?
Answer: intermediate between uninfected cells and the full cytopathic effect

Question: What about the “Cytopathic effect of MHV 68, appearance of infected cells” value ([10]; 1.25 μg/ml or higher, 48 hours, NIH3T12) of the same molecule?
Answer: indistinguishable from uninfected control cells

Question: What about the “Inhibition of virus yield” value ([10]; 10 μg/ml, 48 hours, NIH3T12) of the same molecule?
Answer: over 300 fold

Question: What about the “Potency and selectivity against MHV 68 compared with acyclovir, ganciclovir and foscarnet” value ([10]; FIG. 4 comparison) of the same molecule?
Answer: even more potent and selective

Question: What about the IC50 ([10]; Gammaherpesvirinae sp., in Mus musculus, 48 h, read-out: 50% inhibitory concentration (IC50), MHV 68 virus yield) of the same molecule?
Answer: ~0.6 µg/mL and ~1.9 µM

Question: And the “Effect on MHV 68 virus yield / replication” value ([10]; NIH3T12 cells)?
Answer: inhibits MHV 68 virus yield; also recorded: highly significantly inhibited; also recorded: strongly inhibited

Question: And the “Inhibition of KSHV ORF 50-driven luciferase activity” value [11]?
Answer: ~4 fold

Question: And the “Potency and selectivity against KSHV compared with known antiviral drugs” value ([12]; FIG. 4 comparison)?
Answer: potent and selective antiviral agent

Question: What about the IC50 ([12]; Human gammaherpesvirus 8, BCBL1, 72 h, read-out: 50% inhibitory concentration (IC50), KSHV linear DNA) of the same molecule?
Answer: 1 µg/mL and ~3.3 µM

Question: What about the IC50 [13] of the same molecule?
Answer: ~33 µM

Question: And the “HVS virus yield reduction / replication” value [14]?
Answer: strongly inhibited

Question: And the “Effect on co-transfected CMV promoter” value [15]?
Answer: slightly stimulated

Question: With SR144528 as the molecule, how does the “Effect on spontaneous KSHV reactivation” value ([16]; BCBL-1, without THC) read?
Answer: no effect

Question: What about the “Reversal of inhibition of linear DNA synthesis by THC” value ([16]; both antagonists, 1.25 μg/ml THC) of the same molecule?
Answer: reversed

Question: What about the “Reversal of THC inhibition of KSHV DNA synthesis” value ([16]; single receptor antagonist) of the same molecule?
Answer: not reversed
